Experimental data reported in patent US9221838B2, “Inhibitors of AKT activity” (ALMAC DISCOVERY LIMITED, priority 2009, dated 2015).

What was measured:
Assay type in all cases: biochemical
AKT2 = target: T1, AKT2 (Homo sapiens, UniProt P31751); experiment: AKT Kinase Assay (IMAP fluorescent polarisation) vs AKT2
T1 construct: purchased SignalChem
Method: (§1) Testing of the compounds was performed using an AKT Kinase Assay:
(§2) Activated AKT isoforms 1, 2 and 3 were assayed utilising a 5′ FAM Crosstide (Seq. GRPRTSSFAEG-OH)(SEO ID NO: 1). The extent of kinase phosphorylation was determined by fluorescent polarisation using IMAP progressive binding reagent, which introduces binding beads which allow the reagent to specifically bind to phosphate residues via covalent co-ordination complex bonds.
(§3) iMAP binding solution stops Crosstide/kinase interaction and specifically binds phosphorylated substrates. The degree of phosphorylation is determined by fluorescent polarisation (excitation 485 nm; emission 528 nm) or the reduction in speed of rotation of the excited substrate.
(§4) The following materials were used in the assay: • a) Activated AKT isoforms (SignalChem.) dissolved in Complete Reaction buffer at a pre-determined concentration selected so that the assay was carried out in the linear range. • b) AKT substrate peptide: FAM Crosstide (R7110) Molecular Devices, diluted in complete reaction buffer. • c) iMAP Progressive Screening Express Kit (R8127) Molecular Devices • d) Complete Reaction Buffer containing 0.1% BSA, 10 mM Tris-HCl, 10 mM MgCl2, 0.05% NaN3 and 0.01% phosphate free BSA, 1 mM DTT • e) Progressive Binding Solution containing 75% Buffer A, 25% Buffer B and low volume Binding Reagent which contains the binding entity for the assay • f) ATP diluted in complete reaction buffer • g) Black polystyrene 384 well assay plates (Nunc). • h) Biotek Synergy 4 Hybrid Plate reader.
(§5) 5 μl of test compound was dissolved in DMSO (Sigma Aldrich) and serially diluted in complete reaction buffer to give a fourteen point half log dose response and plated into 384 well black plates. The compound was incubated at room temperature with activated AKT isoform ([…] ) at the pre-determined concentration, for 45 minutes.
(§6) 2.5 μl of ATP solution mixed with 2.5 μl of AKT substrate peptide (FAM Crosstide (R7110) Molecular Devices) were dispensed into each well and the plate centrifuged at 1000 rpm for 20 seconds to ensure homogenous mixing of reagents. The reaction mix was incubated in the dark for one hour at room temperature.
(§7) The kinase reaction was stopped by the addition of Progressive Binding Solution and the mixture allowed to equilibrate for one hour in the dark, at room temperature.
(§8) The fluorescent polarisation generated in each well was determined using a […] Synergy 4 Hybrid plate reader. In brief, each reaction solution was excited at 485 nm with the emission measured at 528 nm in both the parallel and perpendicular pathway.
(§9) The polarisation value generated in each well was calculated by Gen5 software (Biotek) and the % inhibition of kinase activity compared to vehicle control was calculated via GraphPad Prism. IC50 values for each compound were calculated by non-linear regression analysis using Prism software.
(§10) All plates were internally controlled by two methods. Firstly, by calculating the signal:noise ratio; based on kinase polarisation without inhibitor and polarisation generated by complete reaction buffer in the absence of activated kinase. Secondly by determining IC50 values generated by known inhibitors of the AKT isoforms.

AKT1 = target: T2, AKT1 (Homo sapiens, UniProt P31749); experiment: AKT Kinase Assay (IMAP fluorescent polarisation) vs AKT1
T2 construct: purchased SignalChem
Method: as §1, §2, §3, §4, §5, §6, §7, §8, §9, §10

AKT3 = target: T3, AKT3 (Homo sapiens, UniProt Q9Y243); experiment: AKT Kinase Assay (IMAP fluorescent polarisation) vs AKT3
T3 construct: purchased SignalChem
Method: as §1, §2, §3, §4, §5, §6, §7, §8, §9, §10

T1 sequence (P31751 whole entry): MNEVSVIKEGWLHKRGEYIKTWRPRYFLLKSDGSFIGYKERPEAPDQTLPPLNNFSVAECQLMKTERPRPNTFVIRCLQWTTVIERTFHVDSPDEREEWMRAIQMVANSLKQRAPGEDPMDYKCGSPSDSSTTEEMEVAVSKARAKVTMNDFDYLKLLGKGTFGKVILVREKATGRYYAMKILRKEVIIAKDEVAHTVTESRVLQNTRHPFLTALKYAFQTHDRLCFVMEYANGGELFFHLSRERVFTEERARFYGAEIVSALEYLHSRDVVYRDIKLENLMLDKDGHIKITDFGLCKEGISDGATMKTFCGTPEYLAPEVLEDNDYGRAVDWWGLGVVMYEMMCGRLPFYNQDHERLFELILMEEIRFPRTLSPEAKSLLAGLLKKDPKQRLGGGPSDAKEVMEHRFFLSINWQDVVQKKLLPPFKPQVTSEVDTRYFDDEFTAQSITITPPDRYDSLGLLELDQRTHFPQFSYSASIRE
T2 sequence (P31749 whole entry): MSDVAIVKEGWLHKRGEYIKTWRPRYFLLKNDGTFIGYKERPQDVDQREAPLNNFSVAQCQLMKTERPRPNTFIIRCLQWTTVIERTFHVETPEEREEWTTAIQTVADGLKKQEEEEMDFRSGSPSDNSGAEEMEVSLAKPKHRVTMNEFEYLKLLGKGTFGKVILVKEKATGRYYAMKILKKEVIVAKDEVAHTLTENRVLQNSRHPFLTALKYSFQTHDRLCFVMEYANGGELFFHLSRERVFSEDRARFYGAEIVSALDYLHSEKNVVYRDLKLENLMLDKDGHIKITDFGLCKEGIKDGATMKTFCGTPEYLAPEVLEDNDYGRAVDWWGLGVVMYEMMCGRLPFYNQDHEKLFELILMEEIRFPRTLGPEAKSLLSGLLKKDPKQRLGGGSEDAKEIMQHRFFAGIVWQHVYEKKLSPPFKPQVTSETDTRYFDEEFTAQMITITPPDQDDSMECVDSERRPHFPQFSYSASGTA
T3 sequence (Q9Y243 whole entry): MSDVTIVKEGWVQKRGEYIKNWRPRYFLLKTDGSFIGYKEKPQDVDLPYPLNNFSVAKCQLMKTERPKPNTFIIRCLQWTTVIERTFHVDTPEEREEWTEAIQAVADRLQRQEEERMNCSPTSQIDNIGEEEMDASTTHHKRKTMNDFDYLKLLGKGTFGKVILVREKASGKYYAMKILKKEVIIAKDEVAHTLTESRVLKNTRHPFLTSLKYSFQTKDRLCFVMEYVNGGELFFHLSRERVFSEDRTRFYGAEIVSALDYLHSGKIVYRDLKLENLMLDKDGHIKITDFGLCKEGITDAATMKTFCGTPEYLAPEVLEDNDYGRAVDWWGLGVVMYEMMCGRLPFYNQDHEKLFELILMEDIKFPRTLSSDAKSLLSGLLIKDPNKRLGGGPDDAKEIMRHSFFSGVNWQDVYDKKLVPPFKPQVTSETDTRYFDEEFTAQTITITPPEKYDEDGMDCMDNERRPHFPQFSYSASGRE

| SMILES | IC50 (AKT2) [µM] | IC50 (AKT1) [µM] | IC50 (AKT3) [µM] |
| --- | --- | --- | --- |
| NC1(c2ccc(-c3nc4c(cc3-c3ccccc3)N(Cc3cccnc3)C(=O)CO4)cc2)CCC1 [Example 46, 6-(4-(1-aminocyclobutyl)phenyl)-7-phenyl-1-(pyridin-3-ylmethyl)-1H-pyrido[2,3-b][1,4]oxazin-2(3H)-one] | 0.1 to 1 | 0.1 to 1 | 0.1 to 1 |
| CC1(C)CC(=O)c2cc(-c3ccccc3)c(-c3ccc(C4(N)CCC4)cc3)nc2C1 [Example 18, 2-(4-(1-aminocyclobutyl)phenyl)-7,7-dimethyl-3-phenyl-7,8-dihydroquinolin-5(6H)-one] | 1 to 10 | 1 to 10 | > 10 |
| NC1(c2ccc(-c3nc4c(cc3-c3ccccc3)N(Cc3cnc[nH]3)C(=O)CO4)cc2)CCC1 [Example 53, 1-((1H-imidazol-5-yl)methyl)-6-(4-(1-aminocyclobutyl)phenyl)-7-phenyl-1H-pyrido[2,3-b][1,4]oxazin-2(3H)-one] | 1 to 10 | 1 to 10 | 1 to 10 |
| NC1(c2ccc(-c3nc4c(cc3-c3ccccc3)N(C3CCCC3)C(=O)CO4)cc2)CCC1 [Example 58, 6-(4-(1-aminocyclobutyl)phenyl)-1-cyclopentyl-7-phenyl-1H-pyrido[2,3-b][1,4]oxazin-2(3H)-one] | 0.1 to 1 | 1 to 10 | 1 to 10 |
| C=CCN1C(=O)COc2nc(-c3ccc(C4(N)CCC4)cc3)c(-c3ccccc3)cc21 [Example 67, 1-allyl-6-(4-(1-aminocyclobutyl)phenyl)-7-phenyl-1H-pyrido[2,3-b][1,4]oxazin-2(3H)-one] | ≤ 0.1 | 0.1 to 1 | 1 to 10 |
| NC1(c2ccc(-c3nc4c(cc3-c3ccccc3)N(C3CCOCC3)C(=O)CO4)cc2)CCC1 [Example 65, 6-(4-(1-aminocyclobutyl)phenyl)-7-phenyl-1-(tetrahydro-2H-pyran-4-yl)-1H-pyrido[2,3-b][1,4]oxazin-2(3H)-one] | 1 to 10 | 1 to 10 | > 10 |
| CN1c2cc(-c3ccccc3)c(-c3ccc(C4(N)CCC4)cc3)nc2OCS1(=O)=O [Example 73, 6-(4-(1-aminocyclobutyl)phenyl)-1-methyl-7-phenyl-1H-pyrido[3,2-e][1,3,4]oxathiazine 2,2-dioxide] | 0.1 to 1 | 1 to 10 | > 10 |
| Cc1nnc2n1-c1cc(-c3ccccc3)c(-c3ccc(C4(N)CCC4)cc3)nc1OC2 [Example 63, 1-(4-(1-methyl-8-phenyl-4H-pyrido[2,3-b][1,2,4]triazolo[4,3-d][1,4]oxazin-7-yl)phenyl)cyclobutanamine] | 1 to 10 | 0.1 to 1 | > 10 |
| CCOC(=O)CN1C(=O)COc2nc(-c3ccc(C4(N)CCC4)cc3)c(-c3ccccc3)cc21 [Example 49, ethyl 2-(6-(4-(1-aminocyclobutyl)phenyl)-2-oxo-7-phenyl-2,3-dihydro-1H-pyrido[2,3-b][1,4]oxazin-1-yl)acetate] | 0.1 to 1 | 0.1 to 1 | 0.1 to 1 |
| NC1(c2ccc(-c3nc4c(cc3-c3ccccc3)N(Cc3cscn3)C(=O)CO4)cc2)CCC1 [Example 59, 6-(4-(1-aminocyclobutyl)phenyl)-7-phenyl-1-(thiazol-4-ylmethyl)-1H-pyrido[2,3-b][1,4]oxazin-2(3H)-one] | 0.1 to 1 | 1 to 10 | 1 to 10 |
| NC1(c2ccc(-c3nc4c(cc3-c3ccccc3)C(=O)NCC4)cc2)CCC1 [Example 22, 2-(4-(1-aminocyclobutyl)phenyl)-3-phenyl-7,8-dihydro-1,6-naphthyridin-5(6H)-one] | 1 to 10 | ≤ 0.1 | > 10 |
| NC1(c2ccc(-c3nc4c(cc3-c3ccccc3)N(C3CCC3)C(=O)CO4)cc2)CCC1 [Example 61, 6-(4-(1-aminocyclobutyl)phenyl)-1-cyclobutyl-7-phenyl-1H-pyrido[2,3-b][1,4]oxazin-2(3H)-one] | 0.1 to 1 | 1 to 10 | 1 to 10 |

Continued, values first:

| IC50 (AKT2) [µM] | IC50 (AKT1) [µM] | IC50 (AKT3) [µM] | SMILES |
| --- | --- | --- | --- |
| 0.1 to 1 | 1 to 10 | > 10 | CO/N=C1\COc2nc(-c3ccc(C4(N)CCC4)cc3)c(-c3ccccc3)cc2N1C [Example 90, 6-(4-(1-Aminocyclobutyl)phenyl)-1-methyl-7-phenyl-1H-pyrido[2,3-b][1,4]oxazin-2(3H)-one O-methyl oxime] |
| 0.1 to 1 | 1 to 10 | 1 to 10 | CN1C(=O)COc2nc(-c3ccc(CN)cc3)c(-c3ccccc3)cc21 [Example 131, 6-(4-(aminomethyl)phenyl)-1-methyl-7-phenyl-1H-pyrido[2,3-b][1,4]oxazin-2(3H)-one] |
| 0.1 to 1 | ≤ 0.1 | 1 to 10 | CN1C(=O)COc2nc(-c3ccc([C@]4(N)C[C@](C)(O)C4)cc3)c(-c3ccccc3)cc21 [Example 113, 6-(4-((1r,3r)-1-amino-3-hydroxy-3-methylcyclobutyl)phenyl)-1-methyl-7-phenyl-1H-pyrido[2,3-b][1,4]oxazin-2(3H)-one] |
| 1 to 10 | 0.1 to 1 | > 10 | CN1C(=O)COc2nc(-c3ccc([C@]4(N)C[C@@](C)(O)C4)cc3)c(-c3ccccc3)cc21 [Example 134, 6-(4((1s,3s)-1-amino-3-hydroxy-3-methylcyclobutyl)phenyl)-1-methyl-7-phenyl-1H-pyrido[2,3-b][1,4]oxazin-2(3H)-one] |
| ≤ 0.1 | ≤ 0.1 | 1 to 10 | C[C@]1(O)C[C@@](N)(c2ccc(-c3nc4c(cc3-c3ccccc3)N(CC#N)C(=O)CO4)cc2)C1 [Example 150, 2-(6-(4-((1r,3r)-1-amino-3-hydroxy-3-methylcyclobutyl)phenyl)-2-oxo-7-phenyl-2,3-dihydro-1H-pyrido[2,3-b][1,4]oxazin-1-yl)acetonitrile] |
| > 10 | 0.1 to 1 | > 10 | NC1(c2ccc(-c3nc4c(cc3-c3ccccc3)-n3c(nnc3-c3ccccn3)CO4)cc2)CCC1 [Example 130, 1-(4-(8-phenyl-1-(pyridin-2-yl)-4H-pyrido[2,3-b][1,2,4]triazolo[4,3-d][1,4]oxazin-7-yl)phenyl)cyclobutanamine] |
| 1 to 10 | ≤ 0.1 | 1 to 10 | NC1(c2ccc(-c3nc4c(cc3-c3ccccc3)-n3c(nnc3-c3ccncc3)CO4)cc2)CCC1 [Example 123, 1-(4-(8-phenyl-1-(pyridin-4-yl)-4H-pyrido[2,3-b][1,2,4]triazolo[4,3-d][1,4]oxazin-7-yl)phenyl)cyclobutanamine] |
| 1 to 10 | 0.1 to 1 | > 10 | C[C@H]1Oc2nc(-c3ccc(C4(N)CCC4)cc3)c(-c3ccccc3)cc2N(C)C1=O [Example 94, (R)-6-(4-(1-aminocyclobutyl)phenyl)-1,3-dimethyl-7phenyl-1H-pyrido[2,3-b][1,4]oxazin-2(3H)-one] |
| ≤ 0.1 | 0.1 to 1 | 0.1 to 1 | NC1(c2ccc(-c3nc4c(cc3-c3ccccc3)N(CC(F)F)C(=O)CO4)cc2)CCC1 [Example 85, 6-(4-(1-aminocyclobutyl)phenyl)-1-(2,2-difluoroethyl)-7-phenyl-1H-pyrido[2,3-b][1,4]oxazin-2(3H)-one] |
| 1 to 10 | 0.1 to 1 | 1 to 10 | COCCc1nnc2n1-c1cc(-c3ccccc3)c(-c3ccc(C4(N)CCC4)cc3)nc1OC2 [Example 121, 1-(4-(1-(2-methoxyethyl)-8-phenyl-4H-pyrido[2,3-b][1,2,4]triazolo[4,3-d][1,4]oxazin-7-yl)phenyl)cyclobutanamine] |
| 0.1 to 1 | 0.1 to 1 | > 10 | N[C@]1(c2ccc(-c3nc4c(cc3-c3ccccc3)N(CC(F)(F)F)C(=O)CO4)cc2)C[C@H](O)C1 [Example 148, 6-(4-((1s,3s)-1-amino-3-hydroxycyclobutyl)phenyl)-7-phenyl-1-(2,2,2-trifluoroethyl)-1H-pyrido[2,3-b][1,4]oxazin-2(3H)-one] |
| 0.1 to 1 | 0.1 to 1 | 1 to 10 | CN1C(=O)COc2nc(-c3ccc(C4(N)CCC4)cc3)c(-c3cccs3)cc21 [Example 126, 6-(4-(1-aminocyclobutyl)phenyl)-1-methyl-7-(thiophen-2-yl)-1H-pyrido[2,3-b][1,4]oxazin-2(3H)-one] |
